Experimental data: ChEMBL document CHEMBL1201862, “PubChem BioAssay data set” (2004)
Calls of active or inactive are those of the source.

Assays:
[1] = target: T1, Sentrin-specific protease 8 (Homo sapiens, UniProt Q96LD8); assay type: functional;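 further: luminescence read-out of SENP8 inhibition, dose-response confirmation following an ultra-high-throughput screen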
T1 sequence (Q96LD8 whole entry): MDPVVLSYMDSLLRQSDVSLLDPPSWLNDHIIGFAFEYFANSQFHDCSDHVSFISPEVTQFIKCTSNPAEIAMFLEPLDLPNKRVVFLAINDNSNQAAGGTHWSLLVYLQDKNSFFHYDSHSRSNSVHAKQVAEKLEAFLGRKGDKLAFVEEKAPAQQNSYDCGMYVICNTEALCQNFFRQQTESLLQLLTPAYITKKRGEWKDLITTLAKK

[2] = target: T2, Heat shock factor protein 1 (Mus musculus, UniProt P38532); assay: inhibition of MG132-induced HSE-luciferase signal, confirmation, cell-based, NIH3T3, luminescence, dose retest (AID 2382); assay type: functional;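 further: NIH3T3 fibroblasts with HSF1-driven luciferase reporter stressed by proteasome inhibitor MG132; luminescence from HSF1-driven luciferase expression after 8 hours of MG132 stress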
T2 sequence (P38532 whole entry): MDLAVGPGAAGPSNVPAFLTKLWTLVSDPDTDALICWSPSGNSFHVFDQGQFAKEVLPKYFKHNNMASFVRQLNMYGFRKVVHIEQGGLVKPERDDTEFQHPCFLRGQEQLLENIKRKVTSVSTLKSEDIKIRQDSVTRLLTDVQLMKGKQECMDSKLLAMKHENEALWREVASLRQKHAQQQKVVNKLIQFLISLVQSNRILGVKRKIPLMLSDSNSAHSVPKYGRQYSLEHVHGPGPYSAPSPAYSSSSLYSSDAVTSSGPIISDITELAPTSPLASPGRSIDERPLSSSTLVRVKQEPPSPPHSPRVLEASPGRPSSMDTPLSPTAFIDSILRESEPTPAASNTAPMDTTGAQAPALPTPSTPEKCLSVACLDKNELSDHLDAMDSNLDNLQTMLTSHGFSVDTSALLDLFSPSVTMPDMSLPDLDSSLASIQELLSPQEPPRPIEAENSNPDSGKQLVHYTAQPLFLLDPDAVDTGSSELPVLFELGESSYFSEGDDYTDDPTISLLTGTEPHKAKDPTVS

[3] = target: T3, Caspase-3 (Homo sapiens, UniProt P42574); assay type: functional;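 further: Dose-response selectivity test against caspase-3 for candidate inhibitors of sentrin-specific proteases (SENPs)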
T3 sequence (P42574 whole entry): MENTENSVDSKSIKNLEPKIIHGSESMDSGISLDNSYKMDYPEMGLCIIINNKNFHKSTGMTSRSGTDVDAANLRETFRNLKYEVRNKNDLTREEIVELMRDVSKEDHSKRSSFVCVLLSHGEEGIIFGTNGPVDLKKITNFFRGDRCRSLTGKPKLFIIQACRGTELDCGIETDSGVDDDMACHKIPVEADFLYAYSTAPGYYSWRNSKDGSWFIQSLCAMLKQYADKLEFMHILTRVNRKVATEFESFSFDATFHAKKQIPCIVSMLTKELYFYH

[4] = NIH-3T3 fibroblast cytotoxicity, dose response, cytotoxicity control, cell-based, fluorescence, Alamar Blue, secondary assay (AID 2327); assay type: functional;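 further: NIH-3T3 mouse fibroblasts cultured with fluconazole at 8 µg/mL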
[5] = Shn3 3'UTR reporter inhibitors, dose response, cell-based, Clone20 osteoblasts, firefly luciferase, cherry-picked (AID 624132); assay type: functional;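 further: firefly luciferase luminescence from reporter carrying the Shn3 3'UTR in osteoblasts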
[6] = tested on: HEK293; assay: SAR Analysis of small molecule inhibitors of T-cell specific antigen receptor-induced NF-kB activation in a HEK-293T cell line using a luminescence assay - Set 2. [Related pubchem assays (depositor defined):AID435003, AID435012, AID489026]; assay type: functional, cell-based; conditions: Homo sapiens
[7] = C. albicans growth with fluconazole, confirmation, fluorescence, retest (AID 2467); assay type: functional, cell-based
[8] = HepG2 cell cytotoxicity, dose response, cytotoxicity control for Shn3 inhibitor project, CellTiter-Glo, cherry-picked (AID 624134); assay type: functional, cell-based
[9] = tested on: BJ; assay: cells; assay type: functional, cell-based; conditions: Homo sapiens
[10] = cells; assay type: functional, cell-based
[11] = cytotoxicity toward DRD oncogenic fibroblasts, dose response, cell-based, non-viral oncogenic, luminescence (AID 1934); assay type: functional; conditions: Homo sapiens
[12] = Counterscreen for AddAB inhibitors: absorbance-based bacterial cell-based high throughput dose response assay for inhibitors of bacterial viability. [Related pubchem assays (depositor defined):AID435030, AID449728, AID449731, AID488942, AID488955, AID488956]; assay type: functional
[13] = inhibitors of intracellular T. cruzi replication, confirmation, NIH3T3 host cells, beta-gal luminescence (AID 2044); assay type: functional, cell-based;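 further: intracellular parasites grown in NIH/3T3 mouse fibroblasts as host cells; luminescent beta-galactosidase reporter signal from transgenic T. cruzi replicating inside host cells; inhibitors lower the luminescence signal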
[14] = target: Hexokinase-1 (Homo sapiens, UniProt P19367); assay: hexokinase 1 activators, dose response, selectivity assay for HKDC1 activator project, biochemical (AID 504762); assay type: functional
[15] = control 3'UTR Renilla luciferase suppression, dose response, counter-screen for Shn3 inhibitor project, cell-based, Clone20-Shn3RL, cherry-picked (AID 624133); assay type: functional
[16] = tested on: Jurkat; assay: SAR Analysis of small molecule inhibitors of T-cell specific antigen receptor-induced NF-kB activation in a Jurkat cell line using a luminescence assay - Set 2. [Related pubchem assays (depositor defined):AID435003, AID435012, AID465]; assay type: functional, cell-based; conditions: Homo sapiens
[17] = target: Hexokinase HKDC1 (Homo sapiens, UniProt Q2TB90); assay: HKDC1 hexokinase activators, dose response, biochemical, W721R variant (AID 504730); assay type: functional
[18] = cells; assay type: functional, cell-based; remark: listed apart in the source

Hexokinase-1, sequence (P19367 whole entry): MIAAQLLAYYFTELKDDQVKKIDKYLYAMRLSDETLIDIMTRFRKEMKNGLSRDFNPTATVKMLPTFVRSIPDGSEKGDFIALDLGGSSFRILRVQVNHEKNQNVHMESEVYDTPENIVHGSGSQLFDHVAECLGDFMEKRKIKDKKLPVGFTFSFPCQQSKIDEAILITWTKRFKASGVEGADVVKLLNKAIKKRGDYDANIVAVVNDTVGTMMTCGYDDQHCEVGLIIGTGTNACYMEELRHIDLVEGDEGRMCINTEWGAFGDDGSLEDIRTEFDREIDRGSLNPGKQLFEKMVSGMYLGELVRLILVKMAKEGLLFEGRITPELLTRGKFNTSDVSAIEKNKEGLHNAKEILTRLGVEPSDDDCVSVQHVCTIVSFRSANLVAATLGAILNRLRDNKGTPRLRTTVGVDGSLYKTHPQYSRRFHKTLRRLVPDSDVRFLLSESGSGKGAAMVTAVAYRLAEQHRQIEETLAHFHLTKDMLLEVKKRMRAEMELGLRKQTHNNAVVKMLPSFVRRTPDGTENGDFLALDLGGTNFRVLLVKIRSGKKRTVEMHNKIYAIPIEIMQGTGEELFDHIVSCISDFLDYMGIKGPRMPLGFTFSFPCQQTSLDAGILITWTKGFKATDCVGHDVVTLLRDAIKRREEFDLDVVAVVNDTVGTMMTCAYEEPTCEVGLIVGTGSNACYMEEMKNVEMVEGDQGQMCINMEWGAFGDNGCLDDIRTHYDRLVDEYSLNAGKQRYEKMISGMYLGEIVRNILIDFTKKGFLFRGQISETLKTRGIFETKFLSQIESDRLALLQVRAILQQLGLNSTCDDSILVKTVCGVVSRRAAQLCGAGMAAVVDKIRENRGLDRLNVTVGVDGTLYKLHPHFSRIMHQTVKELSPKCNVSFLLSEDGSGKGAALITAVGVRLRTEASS
Hexokinase HKDC1, sequence (Q2TB90 whole entry): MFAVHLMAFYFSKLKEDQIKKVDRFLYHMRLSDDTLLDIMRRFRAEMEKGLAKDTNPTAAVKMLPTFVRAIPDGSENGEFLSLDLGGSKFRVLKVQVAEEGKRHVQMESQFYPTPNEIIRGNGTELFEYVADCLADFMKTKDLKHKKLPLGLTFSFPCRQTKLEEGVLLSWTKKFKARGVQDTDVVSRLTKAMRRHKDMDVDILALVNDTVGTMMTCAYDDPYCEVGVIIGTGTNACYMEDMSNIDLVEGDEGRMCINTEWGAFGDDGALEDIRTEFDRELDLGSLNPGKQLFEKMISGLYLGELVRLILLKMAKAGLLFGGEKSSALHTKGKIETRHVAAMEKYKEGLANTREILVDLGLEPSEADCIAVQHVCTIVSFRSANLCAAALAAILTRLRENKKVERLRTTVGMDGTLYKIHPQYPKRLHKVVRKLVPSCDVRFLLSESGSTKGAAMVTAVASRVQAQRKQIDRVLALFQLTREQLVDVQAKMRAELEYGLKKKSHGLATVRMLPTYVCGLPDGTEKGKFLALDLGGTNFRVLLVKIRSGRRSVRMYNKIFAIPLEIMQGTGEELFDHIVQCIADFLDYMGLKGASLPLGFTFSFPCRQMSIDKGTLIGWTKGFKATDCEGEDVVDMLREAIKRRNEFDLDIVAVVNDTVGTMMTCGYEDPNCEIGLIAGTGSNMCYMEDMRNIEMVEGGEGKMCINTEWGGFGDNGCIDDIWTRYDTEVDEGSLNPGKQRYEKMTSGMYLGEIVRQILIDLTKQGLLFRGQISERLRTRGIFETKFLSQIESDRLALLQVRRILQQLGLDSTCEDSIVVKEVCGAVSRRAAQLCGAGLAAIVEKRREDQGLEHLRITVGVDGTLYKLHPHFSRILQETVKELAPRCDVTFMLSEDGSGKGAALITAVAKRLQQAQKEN

| Compound | IC50 [1] | EC50 [2] | IC50 [3] | EC50 [4] | AC50 [5] | IC50 [6] | EC50 [7] | AC50 [8] | EC50 [9] | EC50 [10] | EC50 [11] | IC50 [12] | EC50 [13] | EC50 [14] | AC50 [15] | IC50 [16] | EC50 [17] | EC50 [18] |
| --- | --- | --- | --- | --- | --- | --- | --- | --- | --- | --- | --- | --- | --- | --- | --- | --- | --- | --- |
| CCOc1cccc(/C=N/NC(=S)Nc2ccccc2[N+](=O)[O-])c1O | 12.8 µM (active) | 3.56 µM (active) | 4.25 µM (active) | – | – | – | – | – | – | – | – | – | – | – | – | – | – | – |
| CCCCC(=O)NC(c1ccc(N(CC)CC)cc1)c1ccc2cccnc2c1O (stereo not drawn) | – | – | – | 18.1 µM (inconclusive) | 1.12 µM (active) | 13 µM (active) | 0.405 µM (active) | 1.2 µM (active) | 2.41 µM (active) | > 350 µM (not active) | 5.53 µM (active) | > 119 µM (inactive) | < 0.1 µM (active) | > 80 µM (inactive) | 0.635 µM (active) | 3.12 µM (active) | 13.3 µM (active) | 3.08 µM (active) |
